From patent US20100311748A1, “HETEROCYCLIC AMIDES USEFUL FOR THE TREATMENT OF CANCER AND PSORIASIS” (ASTRAZENECA AB, priority 2007, published 2010) come the findings set out here.

The test system of the first experiment is Hedgehog pathway. In words: Hedgehog Pathway Cellular Differentiation Assay (alkaline phosphatase production in C3H10T1/2 cells with Shh ligand). The class given is cell-based. The settings on record: 3 μM compound, Shh ligand conditioned media, 72 h, alkaline phosphatase. The procedure:
Hedgehog Pathway Cellular Differentiation Assay The ability of compounds of the invention to inhibit the Hedgehog pathway can be determined by the following cell differentiation assay. C3H10T1/2 cells were plated into 384 well plates at a concentration of 5000 cells/well in DMEM/10% FBS. The following day the media was changed to 20% conditioned media (low serum media DMEM/2% FBS+Shh ligand). Compounds were solubilized in 100% DMSO to a concentration of 10 mM and then serially diluted three fold in 100% DMSO. The highest concentration in the cell plate was 30 μM and the lowest was 3 nM. The compounds were then added to the cells. Cell plates were incubated with the compound for 72 h and then assayed for alkaline phosphatase production using pNp as a substrate. Briefly, after 72 h of incubation, the media was aspirated from the cells and washed with 30 μl of PBS. PBS was aspirated off the cells and 15 μl of 1×RIPA cell lysis buffer is added on to the cells. The cell plates are then incubated at −80° C. for 30 minutes to insure proper cell lysis. The plates were then thawed back to RT. The substrate solution containing pNp at 1 mg/mL in diethanolamine buffer pH 9.8 was then added onto the lysed cells. The plates were incubated at 30° C. for color development and read at an absorbance of 405 nm. The percent inhibition and IC50 value was then calculated from the absorbance data using standard procedures.
For `Cc1ccc(-c2ncc[nH]2)cc1NC(=O)c1ccc2c(c1)OCCO2` [Example 151, N-[5-(1H-imidazol-2-yl)-2-methyl-phenyl]-2,5-dioxabicyclo[4.4.0]deca-7,9,11-triene-8-carboxamide], the “% Inhibition at 3 μM” value was 21.9%.

The experiment is the same for the next values; noted with them: Mus musculus, C3H 10T1/2, 3 μM compound, Shh ligand conditioned media, 72 h, alkaline phosphatase.
`Cc1cc(C)c(-c2ncc[nH]2)cc1NC(=O)c1ccc(OCc2ccccn2)cc1` [Example 67, N-[5-(1H-imidazol-2-yl)-2,4-dimethylphenyl]-4-(pyridin-2-ylmethoxy)benzamide] had an inhibition at 3 µM of 77.1%.

Turning to `Cc1ccc(-c2ccc(N)cn2)cc1NC(=O)c1ccc(OCc2ccccn2)cc1` [Example 6, N-[5-(5-aminopyridin-2-yl)-2-methyl-phenyl]-4-(pyridin-2-ylmethoxy)benzamide], the inhibition at 3 µM was determined as 65.7%.

`CCc1c[nH]c(-c2ccc(C)c(NC(=O)c3ccc(OCc4ccccn4)cc3)c2)n1` [Example 85, N-[5-(4-ethyl-1H-imidazol-2-yl)-2-methylphenyl]-4-(pyridin-2-ylmethoxy)benzamide] came in with an inhibition at 3 µM of 78.8%.

The molecule `Cc1ccc(-c2ncc[nH]2)cc1NC(=O)c1cccc(C#N)c1` [Example 146, 3-cyano-N-[5-(1H-imidazol-2-yl)-2-methyl-phenyl]benzamide] registered an inhibition at 3 µM of 17.1%.

Molecule `Cc1ccc(-c2c(C)nn(C)c2C)cc1NC(=O)c1ccc(OCc2ccccn2)cc1` [Example 35, N-[2-methyl-5-(1,3,5-trimethylpyrazol-4-yl)phenyl]-4-(pyridin-2-ylmethoxy)benzamide] yielded an inhibition at 3 µM of 76.8%.

`Cc1ccc(-c2ncc[nH]2)cc1NC(=O)c1ccc(OCc2ccc(OCCO)cn2)cc1` [Example 131, N-(5-(1H-imidazol-2-yl)-2-methylphenyl)-4-((5-(2-hydroxyethoxy)pyridin-2-yl)methoxy)benzamide] yielded an inhibition at 3 µM of 72.7%.

As for `Cc1cc(Cl)c(-c2cn(C)c(C)n2)cc1NC(=O)c1ccc(OCc2ccccn2)cc1` [Example 77, N-[4-chloro-5-(1,2-dimethyl-1H-imidazol-4-yl)-2-methylphenyl]-4-(pyridin-2-ylmethoxy)benzamide], the inhibition at 3 µM was found to be 86.1%.

Consider `Cc1ccc(-c2nccn2C)cc1NC(=O)c1ccc(OCc2cc(Cl)ccn2)cc1` [Example 91, 4-[(4-chloropyridin-2-yl)methoxy]-N-[2-methyl-5-(1-methyl-1H-imidazol-2-yl)phenyl]benzamide], for which the inhibition at 3 µM was found to be 80.4%.

`Cc1ccc(-c2ncc[nH]2)cc1NC(=O)c1ccc(C#Cc2ccccn2)cc1` [Example 107, N-[5-(1H-imidazol-2-yl)-2-methylphenyl]-4-(pyridin-2-ylethynyl)benzamide] returned an inhibition at 3 µM of 92.3%.

The molecule `Cc1ccc(-c2ncn(C)c2CO)cc1NC(=O)c1ccc(OCc2ccccn2)cc1` [Example 78, N-{5-[5-(hydroxymethyl)-1-methyl-1H-imidazol-4-yl]-2-methylphenyl}-4-(pyridin-2-ylmethoxy)benzamide] registered an inhibition at 3 µM of 75.1%.

On to `Cc1ccc(-c2c[nH]nn2)cc1NC(=O)c1ccc(OCc2ccccn2)cc1` [Example 114, N-(2-methyl-5-(1H-1,2,3-triazol-4-yl)phenyl)-4-(pyridin-2-ylmethoxy)benzamide], for which the inhibition at 3 µM turned out to be 73.2%.

For `O=C(Nc1cc(-c2ncc[nH]2)ccc1Cl)c1ccc(OCc2ccccn2)cc1` [Example 105, N-[2-chloro-5-(1H-imidazol-2-yl)phenyl]-4-(pyridin-2-ylmethoxy)benzamide], the inhibition at 3 µM was determined as 82.1%.

In turn, `Cc1ccc(-c2cnc(C)n2C)cc1NC(=O)c1ccc(OCc2ccccn2)cc1` [Example 23, N-[5-(1,2-dimethyl-1H-imidazol-5-yl)-2-methylphenyl]-4-(pyridin-2-ylmethoxy)benzamide] came in with an inhibition at 3 µM of 73.6%.

On to `Cc1cc(C)c(-c2cnc(C)n2C)cc1NC(=O)c1ccc(OCc2ccccn2)cc1` [Example 70, N-[5-(1,2-dimethyl-1H-imidazol-5-yl)-2,4-dimethylphenyl]-4-(pyridin-2-ylmethoxy)benzamide], for which the inhibition at 3 µM amounted to 78.1%.

For the molecule `COc1ccnc(COc2ccc(C(=O)Nc3cc(-c4ncc[nH]4)ccc3C)cc2)c1` [Example 92, N-[5-(1H-imidazol-2-yl)-2-methylphenyl]-4-[(4-methoxypyridin-2-yl)methoxy]benzamide], at 3 µM the inhibition was 76%.

Molecule `Cc1ccc(-c2ncc[nH]2)cc1NC(=O)c1ccc(OCc2cc(OCCN(C)C)ccn2)cc1` [Example 94, 4-({4-[2-(dimethylamino)ethoxy]pyridin-2-yl}methoxy)-N-[5-(1H-imidazol-2-yl)-2-methylphenyl]benzamide] yielded an inhibition at 3 µM of 56.7%.

Molecule `Cc1c[nH]c(-c2ccc(C)c(NC(=O)c3ccc(OCc4ccccc4C#N)cc3)c2)n1` [Example 44, 4-[(2-cyanophenyl)methoxy]-N-[2-methyl-5-(4-methyl-1H-imidazol-2-yl)phenyl]benzamide] showed an inhibition at 3 µM of 80.7%.

`COc1cccc(COc2ccc(C(=O)Nc3cc(-c4ncc[nH]4)ccc3C)cc2)c1` [Example 41, N-(5-(1H-imidazol-2-yl)-2-methylphenyl)-4-(3-methoxybenzyloxy)benzamide] had an inhibition at 3 µM of 51.9%.

Molecule `Cc1ccc(-c2ccncc2)cc1NC(=O)c1ccc(OCc2ccccn2)cc1` [Example 11, N-(2-methyl-5-pyridin-4-yl-phenyl)-4-(pyridin-2-ylmethoxy)benzamide] gave an inhibition at 3 µM of 75%.

The molecule `Cc1ccc(-c2nccn2C)cc1NC(=O)c1ccc(OCc2ccc(Br)cc2C#N)cc1` [Example 99, 4-[(4-bromo-2-cyanobenzyl)oxy]-N-[2-methyl-5-(1-methyl-1H-imidazol-2-yl)phenyl]benzamide] showed an inhibition at 3 µM of 29.9%.

`Cc1ccc(-c2ncc[nH]2)cc1NC(=O)c1ccc(OCc2ccc(N3CCN(C)CC3)cn2)cc1` [Example 155, N-[5-(1H-imidazol-2-yl)-2-methylphenyl]-4-{[5-(4-methylpiperazin-1-yl)pyridin-2-yl]methoxy}benzamide] had an inhibition at 3 µM of 83.3%.

Consider `Cc1ccc(-c2ncc[nH]2)cc1NC(=O)c1ccc(OCc2cc(OCCN3CCCCC3)ccn2)cc1` [Example 95, N-[5-(1H-imidazol-2-yl)-2-methylphenyl]-4-{[4-(2-piperidin-1-ylethoxy)pyridin-2-yl]methoxy}benzamide], for which the inhibition at 3 µM is 47%.

`Cc1cn(C)c(-c2ccc(C)c(NC(=O)c3ccc(OCc4ccccc4C#N)cc3)c2)n1` [Example 45, 4-[(2-cyanophenyl)methoxy]-N-[5-(1,4-dimethylimidazol-2-yl)-2-methyl-phenyl]benzamide] yielded an inhibition at 3 µM of 80.3%.

In the case of `Cc1ccc(-c2ncc[nH]2)cc1NC(=O)c1ccc(C(F)(F)F)nc1` [Example 150, N-[5-(1H-imidazol-2-yl)-2-methyl-phenyl]-6-(trifluoromethyl)pyridine-3-carboxamide], 3 µM produced 19.4% inhibition.

Take `Cc1ccc(-c2ccnn2C)cc1NC(=O)c1ccc(OCc2ccccn2)cc1` [Example 34, N-[2-methyl-5-(2-methylpyrazol-3-yl)phenyl]-4-(pyridin-2-ylmethoxy)benzamide]: 3 µM produced 69.4% inhibition.

Consider `Cc1ccc(-c2ncc[nH]2)cc1NC(=O)c1ccc(OCc2ncccc2Br)cc1` [Example 120, 4-[(3-bromopyridin-2-yl)methoxy]-N-[5-(1H-imidazol-2-yl)-2-methylphenyl]benzamide], for which the inhibition at 3 µM stood at 78.3%.

`Cc1cc(F)c(-c2ncc[nH]2)cc1NC(=O)c1ccc(OCc2ccccn2)cc1` [Example 102, N-[4-fluoro-5-(1H-imidazol-2-yl)-2-methylphenyl]-4-(pyridin-2-ylmethoxy)benzamide] returned an inhibition at 3 µM of 87.1%.

In turn, `Cc1ccc(-c2ccccn2)cc1NC(=O)c1ccc(OCc2ccccn2)cc1` [Example 9, N-(2-methyl-5-pyridin-2-yl-phenyl)-4-(pyridin-2-ylmethoxy)benzamide] had an inhibition at 3 µM of 60.5%.

In the case of `Cc1ccc(-c2ncc[nH]2)cc1NC(=O)c1ccc(OCc2ccc(S(C)(=O)=O)cc2)cc1` [Example 60, N-[5-(1H-imidazol-2-yl)-2-methylphenyl]-4-{[4-(methylsulfonyl)benzyl]oxy}benzamide], 3 µM produced 79.7% inhibition.

In the case of `Cc1ccc(-c2ncc[nH]2)cc1NC(=O)c1ccc(OCc2ccccn2)cn1` [Example 112, N-[5-(1H-imidazol-2-yl)-2-methylphenyl]-5-(pyridin-2-ylmethoxy)pyridine-2-carboxamide], the inhibition at 3 µM came to 54.3%.

Take `Cc1ccc(-c2nc(-c3ccccc3)c[nH]2)cc1NC(=O)c1ccc(OCc2ccccn2)cc1` [Example 81, N-[2-methyl-5-(4-phenyl-1H-imidazol-2-yl)phenyl]-4-(pyridin-2-ylmethoxy)benzamide]: the inhibition at 3 µM was determined as 78.8%.

Molecule `Cc1cc(C)c(-c2ncc(C)n2C)cc1NC(=O)c1ccc(OCc2ccccn2)cc1` [Example 69, N-[5-(1,5-dimethyl-1H-imidazol-2-yl)-2,4-dimethylphenyl]-4-(pyridin-2-ylmethoxy)benzamide] registered an inhibition at 3 µM of 83.9%.

As to `Cc1ccc(-c2ncc[nH]2)cc1NC(=O)c1ccc(OCC2CCCCN2C)cc1` (centres unmarked) [Example 143, N-(5-(1H-imidazol-2-yl)-2-methylphenyl)-4-((1-methylpiperidin-2-yl)methoxy)benzamide], testing at 3 µM gave an inhibition of 62.3%.

The same experiment, now with this note: Mus musculus, C3H 10T1/2, Shh ligand conditioned media, 72 h, alkaline phosphatase (pNp, 405 nm).
For the molecule `Cc1ccc(-c2ccccn2)cc1NC(=O)c1ccc(OCc2ccccn2)cc1` [Example 9, N-(2-methyl-5-pyridin-2-yl-phenyl)-4-(pyridin-2-ylmethoxy)benzamide], the IC50 was found to be 0.12 µM.

The % Inhibition is how much of the control response was suppressed. One may read the inhibition as the percentage by which the read-out fell short of the control. For orientation: IC50 means the concentration that gives 50% inhibition. A low value points to greater potency.
